In ChEMBL document CHEMBL3785012, “Cell-penetrating conjugates of pentaglutamylated methotrexate as potential anticancer drugs against resistant tumor cells” (Eur J Med Chem, 2016):
pIC50: −log10 of the molar value. Residues, ends and D or L forms follow the SMILES beside them. *: point of attachment. DAMPA = CN(Cc1cnc2nc(N)nc(N)c2n1)c1ccc(C(=O)*)cc1

Legend:
[1] = tested on: MDA-MB-231; assay: Cytostatic activity against human MDA-MB-231 cells preincubated for 3 hrs followed by serum treatment for 72 hrs measured on day 4 by MTT assay; type: functional, cell-based
[2] = tested on: MCF7; assay: Cytostatic activity against human MCF7 cells preincubated for 3 hrs followed by serum treatment for 72 hrs measured on day 4 by MTT assay; type: functional, cell-based
[3] = tested on: MDA-MB-231; assay: Drug uptake in human MDA-MB-231 cells at 1 to 10 uM preincubated for 90 mins followed by compound wash out and subsequent trypsin addition for 10 mins by 5 (6)-carboxy-fluorescein based flow cytometric analysis; type: ADME, cell-based; details: mda-mb-231, 10 min
[4] = tested on: MCF7; assay: Drug uptake in human MCF7 cells at 1 to 10 uM preincubated for 90 mins followed by compound wash out and subsequent trypsin addition for 10 mins by 5 (6)-carboxy-fluorescein based flow cytometric analysis; type: ADME, cell-based; details: mcf7, 10 min
[5] = tested on: MCF7; assay: Drug uptake in human MCF7 cells at 1 uM preincubated for 90 mins followed by compound wash out and subsequent trypsin addition for 10 mins by 5 (6)-carboxy-fluorescein based flow cytometric analysis; type: ADME, cell-based; details: mcf7, 10 min
[6] = tested on: MCF7; assay: Drug uptake in human MCF7 cells at 5 uM preincubated for 90 mins followed by compound wash out and subsequent trypsin addition for 10 mins by 5 (6)-carboxy-fluorescein based flow cytometric analysis; type: ADME, cell-based; details: mcf7, 10 min
[7] = tested on: MCF7; assay: Drug uptake in human MCF7 cells at 10 uM preincubated for 90 mins followed by compound wash out and subsequent trypsin addition for 10 mins by 5 (6)-carboxy-fluorescein based flow cytometric analysis; type: ADME, cell-based; details: mcf7, 10 min

SMILES | pIC50 [1] | pIC50 [2] | Drug uptake [3] | Drug uptake [4] | Flu intensity [5] | Flu intensity [6] | Flu intensity [7]
CC[C@H](C)[C@H](NC(=O)[C@H](CCCCN)NC(=O)[C@@H](NC(=O)[C@H](CCC(N)=O)NC(=O)[C@H](CCCNC(=N)N)NC(=O)[C@H](CCC(=O)O)NC(=O)c1ccc(N(C)Cc2cnc3nc(N)nc(N)c3n2)cc1)[C@@H](C)CC)C(=O)N[C@@H](Cc1c[nH]c2ccccc12)C(=O)N[C@@H](Cc1ccccc1)C(=O)N[C@@H](CCC(N)=O)C(=O)N[C@@H](CC(N)=O)C(=O)N[C@@H](CCCNC(=N)N)C(=O)N[C@@H](CCCNC(=N)N)C(=O)N[C@@H](CCCCN)C(=O)N[C@@H](Cc1c[nH]c2ccccc12)C(=O)N[C@@H](CCCCN)C(=O)N[C@@H](CCCCN)C(=O)O ({DAMPA}-ERQIKIWFQNRRKWKK-OH) | 4.89 | 4.40 | – | – | – | – | –
CN(Cc1cnc2nc(N)nc(N)c2n1)c1ccc(C(=O)N[C@@H](CCC(=O)O)C(=O)N[C@@H](CCCNC(=N)N)C(=O)N[C@@H](CCCNC(=N)N)C(=O)N[C@@H](CCCNC(=N)N)C(=O)N[C@@H](CCCNC(=N)N)C(=O)N[C@@H](CCCNC(=N)N)C(=O)N[C@@H](CCCNC(=N)N)C(=O)N[C@@H](CCCNC(=N)N)C(=O)N[C@@H](CCCNC(=N)N)C(=O)O)cc1 | 4.00 | < 4.00 | – | – | – | – | –
CC(C)C[C@H](NC(=O)[C@H](Cc1ccccc1)NC(=O)CNC(=O)[C@H](CCC(=O)O)NC(=O)[C@H](CCC(=O)O)NC(=O)[C@H](CCC(=O)O)NC(=O)[C@H](CCC(=O)O)NC(=O)[C@H](CCC(=O)O)NC(=O)[C@H](CCC(=O)O)NC(=O)c1ccc(N(C)Cc2cnc3nc(N)nc(N)c3n2)cc1)C(=O)NCC(=O)N[C@@H](CCCNC(=N)N)C(=O)N[C@@H](CCCNC(=N)N)C(=O)N[C@@H](CCCNC(=N)N)C(=O)N[C@@H](CCCNC(=N)N)C(=O)N[C@@H](CCCNC(=N)N)C(=O)N[C@@H](CCCNC(=N)N)C(=O)N[C@@H](CCCNC(=N)N)C(=O)N[C@@H](CCCNC(=N)N)C(=O)O ({DAMPA}-EEEEEEGFLGRRRRRRRR-OH) | 4.00 | < 4.00 | – | – | – | – | –
CC(C)C[C@H](NC(=O)[C@H](Cc1ccccc1)NC(=O)CNC(=O)[C@H](CCC(=O)O)NC(=O)c1ccc(N(C)Cc2cnc3nc(N)nc(N)c3n2)cc1)C(=O)NCC(=O)N[C@@H](CCCNC(=N)N)C(=O)N[C@@H](CCCNC(=N)N)C(=O)N[C@@H](CCCNC(=N)N)C(=O)N[C@@H](CCCNC(=N)N)C(=O)N[C@@H](CCCNC(=N)N)C(=O)N[C@@H](CCCNC(=N)N)C(=O)N[C@@H](CCCNC(=N)N)C(=O)N[C@@H](CCCNC(=N)N)C(=O)O ({DAMPA}-EGFLGRRRRRRRR-OH) | 4.72 | 4.50 | – | – | – | – | –
CC[C@H](C)[C@H](NC(=O)[C@H](CCCCN)NC(=O)[C@@H](NC(=O)[C@H](CCC(N)=O)NC(=O)[C@H](CCCNC(=N)N)NC(=O)CNC(=O)[C@H](CC(C)C)NC(=O)[C@H](Cc1ccccc1)NC(=O)CNC(=O)[C@H](CCC(=O)O)NC(=O)c1ccc(N(C)Cc2cnc3nc(N)nc(N)c3n2)cc1)[C@@H](C)CC)C(=O)N[C@@H](Cc1c[nH]c2ccccc12)C(=O)N[C@@H](Cc1ccccc1)C(=O)N[C@@H](CCC(N)=O)C(=O)N[C@@H](CC(N)=O)C(=O)N[C@@H](CCCNC(=N)N)C(=O)N[C@@H](CCCNC(=N)N)C(=O)N[C@@H](CCCCN)C(=O)N[C@@H](Cc1c[nH]c2ccccc12)C(=O)N[C@@H](CCCCN)C(=O)N[C@@H](CCCCN)C(=O)O ({DAMPA}-EGFLGRQIKIWFQNRRKWKK-OH) | 5.26 | 4.86 | Active | Active | – | – | –
N=C(N)NCCC[C@H](NC(=O)[C@H](CCCNC(=N)N)NC(=O)[C@H](CCCNC(=N)N)NC(=O)[C@H](CCCNC(=N)N)NC(=O)[C@H](CCCNC(=N)N)NC(=O)[C@H](CCCNC(=N)N)NC(=O)[C@H](CCCNC(=N)N)NC(=O)[C@@H](N)CCCNC(=N)N)C(=O)O | < 4.00 | 4.00 | Active | – | 975 | < 8669 | < 52928
CN(Cc1cnc2nc(N)nc(N)c2n1)c1ccc(C(=O)N[C@@H](CCC(=O)O)C(=O)N[C@@H](CCC(=O)O)C(=O)N[C@@H](CCC(=O)O)C(=O)N[C@@H](CCC(=O)O)C(=O)N[C@@H](CCC(=O)O)C(=O)N[C@@H](CCC(=O)O)C(=O)N[C@@H](CCCNC(=N)N)C(=O)N[C@@H](CCCNC(=N)N)C(=O)N[C@@H](CCCNC(=N)N)C(=O)N[C@@H](CCCNC(=N)N)C(=O)N[C@@H](CCCNC(=N)N)C(=O)N[C@@H](CCCNC(=N)N)C(=O)N[C@@H](CCCNC(=N)N)C(=O)N[C@@H](CCCNC(=N)N)C(=O)O)cc1 ({DAMPA}-EEEEEERRRRRRRR-OH) | < 4.00 | < 4.00 | Active | Active | – | – | –
CN(Cc1cnc2nc(N)nc(N)c2n1)c1ccc(C(=O)N[C@@H](CCC(=O)O)C(=O)O)cc1 [METHOTREXATE] | < 4.00 | 6.10 | – | – | – | – | –
CC[C@H](C)[C@H](NC(=O)[C@H](CCCCN)NC(=O)[C@@H](NC(=O)[C@H](CCC(N)=O)NC(=O)[C@H](CCCNC(=N)N)NC(=O)[C@H](CCC(=O)O)NC(=O)[C@H](CCC(=O)O)NC(=O)[C@H](CCC(=O)O)NC(=O)[C@H](CCC(=O)O)NC(=O)[C@H](CCC(=O)O)NC(=O)[C@H](CCC(=O)O)NC(=O)c1ccc(N(C)Cc2cnc3nc(N)nc(N)c3n2)cc1)[C@@H](C)CC)C(=O)N[C@@H](Cc1c[nH]c2ccccc12)C(=O)N[C@@H](Cc1ccccc1)C(=O)N[C@@H](CCC(N)=O)C(=O)N[C@@H](CC(N)=O)C(=O)N[C@@H](CCCNC(=N)N)C(=O)N[C@@H](CCCNC(=N)N)C(=O)N[C@@H](CCCCN)C(=O)N[C@@H](Cc1c[nH]c2ccccc12)C(=O)N[C@@H](CCCCN)C(=O)N[C@@H](CCCCN)C(=O)O ({DAMPA}-EEEEEERQIKIWFQNRRKWKK-OH) | 7.00 | < 4.00 | Active | Active | – | – | –
CC[C@H](C)[C@H](NC(=O)[C@H](CCCCN)NC(=O)[C@@H](NC(=O)[C@H](CCC(N)=O)NC(=O)[C@H](CCCNC(=N)N)NC(=O)CNC(=O)[C@H](CC(C)C)NC(=O)[C@H](Cc1ccccc1)NC(=O)CNC(=O)[C@H](CCC(=O)O)NC(=O)[C@H](CCC(=O)O)NC(=O)[C@H](CCC(=O)O)NC(=O)[C@H](CCC(=O)O)NC(=O)[C@H](CCC(=O)O)NC(=O)[C@H](CCC(=O)O)NC(=O)c1ccc(N(C)Cc2cnc3nc(N)nc(N)c3n2)cc1)[C@@H](C)CC)C(=O)N[C@@H](Cc1c[nH]c2ccccc12)C(=O)N[C@@H](Cc1ccccc1)C(=O)N[C@@H](CCC(N)=O)C(=O)N[C@@H](CC(N)=O)C(=O)N[C@@H](CCCNC(=N)N)C(=O)N[C@@H](CCCNC(=N)N)C(=O)N[C@@H](CCCCN)C(=O)N[C@@H](Cc1c[nH]c2ccccc12)C(=O)N[C@@H](CCCCN)C(=O)N[C@@H](CCCCN)C(=O)O ({DAMPA}-EEEEEEGFLGRQIKIWFQNRRKWKK-OH) | 6.40 | 6.52 | Active | Active | – | – | –
